Converted amounts (≈) assume the structure as drawn. “Also recorded” adds a separate entry of the source. One block for each molecule: values may come before it.
Legend:
Assay type in all cases: physicochemical
[1] = Slurry competition of the six anhydrates in n-butanol (thermodynamic assessment); details: all anhydrates in equal mass ratios, RT and 50° C.
Method: A total of six anhydrates, Forms A, C, D, E, N, and Q were observed. A thermodynamic assessment of all anhydrates was performed by slurrying all anhydrates in equal mass ratios in a non-solvating solvent, n-Butanol, at RT and 50° C.

[2] = Approximate solubility of Form A in 20 single solvents at RT; details: thermodynamic from solid
Method: Approximate solubility of Form A was determined in 20 single solvents at RT, respectively. Approximately 2 mg of Form A was added into a 3-mL glass vial. Corresponding solvents were added stepwise (50 μL-50 μL-200 μL-700 μL) into the vials until the solids were dissolved visually or a total volume of 1 mL was reached. The ranges of approximate solubility were calculated according to the mass of sample, volume of solvent and observation. The results summarized in Table 2 were used to guide the solvent selection in polymorph screening.

[3] = Slurry competition of Form K and Form C at various water activities (critical water activity); details: for Relative stability, Form K vs Form C slurry: EtOH/H2O
Source text: One hydrate (Form K) was observed and found to be a hemi-hydrate. […] It was suspected that EtOH may be forming a solvate that favors the formation of Form K because at higher water activities, the hydrate should be more thermodynamically stable. The values and results for obtaining the critical water activity follows the laws of thermodynamics and the results obtained from this experiment can be transferred to another solvent/H2O system. Additional critical water activity experiments were performed in acetone/H2O at Aw=0.5 and 0.9 using Form K and Form C.

[4] = Ambient drying of wet cake solids, form followed by XRPD
Method: Form A obtained from anti-solvent addition in ACN/H2O was further investigated by analyzing the wet solids by XRPD. The sample was covered with 3511 Kapton film to minimize the solvent evaporation from the wet cake. A unique pattern, different from Form A was observed indicating a labile solvate phase forms in this solvent system.
Form B was obtained by temperature cycling in IPA. The formation of Form B was also observed in IPA slurry at RT and 60° C. Form B was further characterized by analyzing the wet cake by XRPD. The sample on the XRPD sample holder was covered by 3511 Kapton Film to minimize the solvent evaporation from the sample. […] Comparing the KF and TGA results, it was concluded that Form B is an IPA solvate, more specifically, a hemi-solvate determined by calculating the API:Solvent stoichiometry from the TGA weight loss to be 1:0.6.
(§1) Form D was obtained by temperature cycling in toluene. The formation of Form D was also observed in 60° C. slurry and slow cooling using toluene. Form D was further characterized by analyzing the wet solids by XRPD. The sample on the XRPD sample holder was covered by 3511 Kapton Film to minimize the solvent evaporation from the sample. […] The minimal weight loss observed indicated an anhydrous phase.
as §1, with “Form E” for “Form D”, “in IPAc/MTBE (1:3 v/v).” for “in toluene.”, “in anti-solvent addition, crash cooling, and” for “in 60° C.”, “slurry at RT experiments” for “slurry and slow cooling”, “using MTBE, 2-MeTHF, or” for “using”
Form F was obtained by temperature cycling in THF/H2O (0.92/0.08 v/v Aw=0.2). The formation of Form F was also observed in RT slurry in THF/H2O at Aw=0.4 and 0.6, and in temperature cycling in THF/H2O (1:3). Form F was further characterized by analyzing the wet solids by XRPD. The sample on the XRPD sample holder was covered by 3511 Kapton film to minimize the solvent evaporation. […] Comparing the KF and TGA results, it was concluded that Form F is likely a THF solvate.

SMILES: CC(=O)N/C(N)=N/C(=N\S(=O)(=O)c1ccc(C(F)(F)F)cc1)N1C[C@H](c2ccccc2)C(c2ccc(Cl)cc2)=N1 [Form A, N-{[(S)-{[3-(4-chlorophenyl)-4-phenyl-4,5-dihydro-1H-pyrazol-1-yl][4-(trifluoromethyl)benzenesulfonamido]methylidene}amino]methanimidoyl}acetamide]
- Relative thermodynamic stability of anhydrates (outcome of slurry competition) [1]: conversion of all anhydrates to Form C
- solubility ([2]; Anisole, organic solvent or mixture): > 10000 µg/mL
- solubility ([2]; EtOH, organic solvent or mixture): > 10000 µg/mL
- solubility ([2]; IPA, organic solvent or mixture): < 3000 µg/mL
- solubility ([2]; MTBE, organic solvent or mixture): < 3000 µg/mL
- solubility ([2]; Toluene, organic solvent or mixture): 2000 to 10000 µg/mL (≈ 3.38 to 16.9 mM)
- solubility ([2]; Water): < 3000 µg/mL
- solubility ([2]; n-heptane, organic solvent or mixture): < 3000 µg/mL

SMILES: CC(=O)N/C(N)=N/C(=N\S(=O)(=O)c1ccc(C(F)(F)F)cc1)N1C[C@H](c2ccccc2)C(c2ccc(Cl)cc2)=N1 [Form C, N-{[(S)-{[3-(4-chlorophenyl)-4-phenyl-4,5-dihydro-1H-pyrazol-1-yl][4-(trifluoromethyl)benzenesulfonamido]methylidene}amino]methanimidoyl}acetamide]
- Relative stability, Form K vs Form C slurry ([3]; Aw>0.9, equal mass ratios): more stable
- Relative thermodynamic stability of anhydrates (outcome of slurry competition) [1]: thermodynamically most stable anhydrous form; also recorded: most stable anhydrate

SMILES: CC(=O)N/C(N)=N/C(=N\S(=O)(=O)c1ccc(C(F)(F)F)cc1)N1C[C@H](c2ccccc2)C(c2ccc(Cl)cc2)=N1 [Form D, N-{[(S)-{[3-(4-chlorophenyl)-4-phenyl-4,5-dihydro-1H-pyrazol-1-yl][4-(trifluoromethyl)benzenesulfonamido]methylidene}amino]methanimidoyl}acetamide]
- Relative thermodynamic stability of anhydrates (outcome of slurry competition) [1]: conversion of all anhydrates to Form C

SMILES: CC(=O)N/C(N)=N/C(=N\S(=O)(=O)c1ccc(C(F)(F)F)cc1)N1C[C@H](c2ccccc2)C(c2ccc(Cl)cc2)=N1 [Form E, N-{[(S)-{[3-(4-chlorophenyl)-4-phenyl-4,5-dihydro-1H-pyrazol-1-yl][4-(trifluoromethyl)benzenesulfonamido]methylidene}amino]methanimidoyl}acetamide]
- Relative thermodynamic stability of anhydrates (outcome of slurry competition) [1]: conversion of all anhydrates to Form C

SMILES: CC(=O)N/C(N)=N/C(=N\S(=O)(=O)c1ccc(C(F)(F)F)cc1)N1C[C@H](c2ccccc2)C(c2ccc(Cl)cc2)=N1 [Form G, N-{[(S)-{[3-(4-chlorophenyl)-4-phenyl-4,5-dihydro-1H-pyrazol-1-yl][4-(trifluoromethyl)benzenesulfonamido]methylidene}amino]methanimidoyl}acetamide]
- Solid form conversion upon ambient drying [4]: converted to Form F

SMILES: CC(=O)N/C(N)=N/C(=N\S(=O)(=O)c1ccc(C(F)(F)F)cc1)N1C[C@H](c2ccccc2)C(c2ccc(Cl)cc2)=N1 [Form H, N-{[(S)-{[3-(4-chlorophenyl)-4-phenyl-4,5-dihydro-1H-pyrazol-1-yl][4-(trifluoromethyl)benzenesulfonamido]methylidene}amino]methanimidoyl}acetamide]
- Solid form conversion upon ambient drying [4]: converted to Form D

SMILES: CC(=O)N/C(N)=N/C(=N\S(=O)(=O)c1ccc(C(F)(F)F)cc1)N1C[C@H](c2ccccc2)C(c2ccc(Cl)cc2)=N1 [Form I, N-{[(S)-{[3-(4-chlorophenyl)-4-phenyl-4,5-dihydro-1H-pyrazol-1-yl][4-(trifluoromethyl)benzenesulfonamido]methylidene}amino]methanimidoyl}acetamide]
- Solid form conversion upon ambient drying [4]: converted to Form B

SMILES: CC(=O)N/C(N)=N/C(=N\S(=O)(=O)c1ccc(C(F)(F)F)cc1)N1C[C@H](c2ccccc2)C(c2ccc(Cl)cc2)=N1 [Form K, N-{[(S)-{[3-(4-chlorophenyl)-4-phenyl-4,5-dihydro-1H-pyrazol-1-yl][4-(trifluoromethyl)benzenesulfonamido]methylidene}amino]methanimidoyl}acetamide]
- Stability of the hydrate (conclusion of critical water activity experiments) [3]: not a stable hydrate
- Relative stability, Form K vs Form C slurry ([3]; 0.1<Aw<0.9, equal mass ratios): more stable
- Outcome of Form K and Form C slurry ([3]; acetone/H2O, Aw=0.5 and 0.9): conversion to Form C

Other lines, results leading:

- Relative thermodynamic stability of anhydrates (outcome of slurry competition) [1]: conversion of all anhydrates to Form C
SMILES: CC(=O)N/C(N)=N/C(=N\S(=O)(=O)c1ccc(C(F)(F)F)cc1)N1C[C@H](c2ccccc2)C(c2ccc(Cl)cc2)=N1 [Form N, N-{[(S)-{[3-(4-chlorophenyl)-4-phenyl-4,5-dihydro-1H-pyrazol-1-yl][4-(trifluoromethyl)benzenesulfonamido]methylidene}amino]methanimidoyl}acetamide]

- Solid form conversion upon ambient drying [4]: converted to Form E
SMILES: CC(=O)N/C(N)=N/C(=N\S(=O)(=O)c1ccc(C(F)(F)F)cc1)N1C[C@H](c2ccccc2)C(c2ccc(Cl)cc2)=N1 [Form P, N-{[(S)-{[3-(4-chlorophenyl)-4-phenyl-4,5-dihydro-1H-pyrazol-1-yl][4-(trifluoromethyl)benzenesulfonamido]methylidene}amino]methanimidoyl}acetamide]

- Relative thermodynamic stability of anhydrates (outcome of slurry competition) [1]: conversion of all anhydrates to Form C
SMILES: CC(=O)N/C(N)=N/C(=N\S(=O)(=O)c1ccc(C(F)(F)F)cc1)N1C[C@H](c2ccccc2)C(c2ccc(Cl)cc2)=N1 [Form Q, N-{[(S)-{[3-(4-chlorophenyl)-4-phenyl-4,5-dihydro-1H-pyrazol-1-yl][4-(trifluoromethyl)benzenesulfonamido]methylidene}amino]methanimidoyl}acetamide]
